Data taken from patent US20240376108A1, “SALT AND CRYSTAL FORM OF PYRAZOLE-CONTAINING POLYCYCLIC DERIVATIVE, AND PREPARATION METHOD THEREFOR AND USE THEREOF” (Shanghai Hansoh Biomedical Co., Ltd., priority 2021, published 2024).

Assays:
[1] = Metabolic stability in liver microsome (human); type: in vitro ADME
Experimental: (§1) Test Example 5. Assay of Metabolic Stability in Liver Microsome
(§2) 1. Experimental objective: The objective of the experiment is to determine the stability of the compounds of the Examples in liver microsome of mouse, rat, dog and human.
(§3) 2.1 Formulation of the working solution of the compound: Formulation of the working solution of the compound: The stock solution of the compound was added to phosphate buffer, and the final concentration was 20 μM.
(§4) 2.2 Formulation of the working solution of liver microsome: Liver microsome was diluted with 100 mM phosphate buffer to obtain a final concentration of 0.625 mg/mL.
(§5) 2.3 Formulation of NADPH and UDPGA: NADPH (reduced nicotinamide adenine dinucleotide phosphate) and UDPGA (uridine diphosphate glucuronic acid) were weighed respectively, followed by addition of 100 mM phosphate buffer. The final concentrations were 20 mM.
(§6) 2.4 Formulation of the channel-forming reagent: 1 mg of Alamethicin was weighed, to which 200 μL of DMSO was added to obtain a 5 mg/mL solution. The solution was diluted with phosphate buffer to obtain a final concentration of 50 μg/mL.
(§7) 2.5 Formulation of the reaction stop solution: Stop solution: Cold acetonitrile containing 100 ng/mL labetalol hydrochloride and 400 ng/mL tolbutamide as internal standards.
(§8) 2.6 Incubation procedure: 400 μL of the prepared liver microsome, 25 μL of the working solution of the compound and 25 μL of Alamethicin were added to a 96-well plate successively, which was then pre-incubated at 37° C. for 10 minutes. 50 μL of the prepared NADPH/UDPGA was added to initiate the reaction, and the plate was incubated at 37° C. The total volume of the reaction system was 500 μL. The final contents of the components were as follows:
(§9) 2.7.1 Chromatographic conditions: • Instrument: Shimadzu LC-30 AD; Chromatographic column: XBridge® C18 (50*4.6 mm, particle size: 5 μm); • Mobile phase: A: 0.1% formic acid solution, B: methanol • Eluent gradient: 0.2˜1.6 min 5% A to 95% A, 3.0˜3.1 min 95% A to 5% A • Running time: 4.0 min.
(§10) 2.7.2 Mass spectrometry conditions: • Instrument: API5500 liquid chromatography-mass spectrometer, AB Sciex; • Ion source: Electrospray ionization source (ESI); Drying gas: N2, temperature: 500° C.; • Electrospray voltage: 5000V; Detection method: Positive ion detection; • Scanning mode: Mode of reaction monitoring (MRM).

[2] = Metabolic stability in liver microsome (mouse); type: in vitro ADME
Experimental: as §1, §2, §3, §4, §5, §6, §7, §8, §9, §10

[3] = Metabolic stability in liver microsome (rat); type: in vitro ADME; conditions: rat liver microsome, 60 min
Experimental: as §1, §2, §3, §4, §5, §6, §7, §8, §9, §10

[4] = Pharmacokinetic assay of the salt forms in rats (10 mg/kg); type: in vivo; conditions: SD rats
Experimental: 2.3 Pharmacokinetic assay of the methanesulfonate in rats
2.3.1. Study objective: SD rats were used as test animals. The pharmacokinetic behavior of various salt forms of 2-(2-cyano-5-oxo-8-(trifluoromethyl)pyrazolo[1,5-a]pyrido[3,2-e]pyrimidin-4(5H)-yl)-N-(5-fluoropyridin-2-yl)acetamide was studied in rat body (plasma) by orally administration at a dose of 10 mg/kg.
2.3.2.4 Administration: After an overnight fast, male SD rats (3 rats per group) were administered p.o. with the test compound at a dose of 10 mg/kg and a volume of 10 mL/kg.
2.3.2.5 Sample collection: 0.2 mL of blood was taken from the jugular vein of the rat before administration and at 0, 0.5, 1, 2, 4, 6, 8 and 24 hours after administration. The samples were stored in EDTA-K2 tubes, and centrifuged for 6 minutes at 4° C., 6000 rpm to separate the plasma. The plasma samples were stored at −80° C.
1) 160 μL of acetonitrile was added to 40 μL of the plasma sample for precipitation, and then the mixture was centrifuged at 3500×g for 5 to 20 minutes.
2) After the above process, 100 μL of the supernatant was taken to analyze the concentration of the test compound by LC/MS/MS.
2.3.2.7 Liquid chromatography analysis • Liquid chromatography condition: Shimadzu LC-20AD pump • Mass spectrometry condition: AB Sciex API 4000 mass spectrometer • Chromatographic column: phenomenex Gemiu 5 um C18 50×4.6 mm • Mobile phase: Eluent A was 0.1% formic acid in water, and Eluent B was acetonitrile • Flow rate: 0.8 mL/min • Elution time: 0-4.0 minutes, the eluent is as follows:
The main parameters of pharmacokinetics were calculated by WinNonlin 8.2.

[5] = Solid stability experiment (high temperature, high humidity, high temperature and high humidity); type: physicochemical
Experimental: 4.1.1 Experimental objective: To investigate the physical and chemical stability of the crystal form of the compound under the conditions of high temperature, high humidity, as well as high temperature and high humidity, so as to provide a basis for crystal form screening and storage of the crystal form of the compound.
The content of the salt was determined by HPLC using the external standard method, and the change of relevant substances was calculated by using the chromatographic peak area normalization method.

[6] = Hygroscopicity experiment (DVS); type: physicochemical; conditions: 25° C.
Method in brief: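 Hygroscopic weight gain (%) measured after each salt's crystal form reached dynamic equilibrium with water vapour at various relative humidities, by dynamic vapour sorption.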

[7] = High humidity (92.5% RH), Day 7
[8] = High humidity (92.5% RH), Day 14
[9] = High temperature (60° C.), Day 7
[10] = High temperature (60° C.), Day 14
[11] = High temperature and high humidity (50° C.&75% RH), Day 7
[12] = High temperature and high humidity (50° C.&75% RH), Day 14
[13] = Cycle 1, target relative humidity 0.0%
[14] = Cycle 1, target relative humidity 10.0%
[15] = Cycle 1, target relative humidity 20.0%
[16] = Cycle 1, target relative humidity 30.0%
[17] = Cycle 1, target relative humidity 40.0%
[18] = Cycle 1, target relative humidity 50.0%
[19] = Cycle 1, target relative humidity 60.0%
[20] = Cycle 1, target relative humidity 70.0%
[21] = Cycle 1, target relative humidity 80.0%
[22] = Cycle 1, target relative humidity 90.0%
[23] = Cycle 1, target relative humidity 95.0%
[24] = Cycle 2, target relative humidity 0.0%
[25] = Cycle 2, target relative humidity 10.0%
[26] = Cycle 2, target relative humidity 20.0%
[27] = Cycle 2, target relative humidity 30.0%
[28] = Cycle 2, target relative humidity 40.0%
[29] = Cycle 2, target relative humidity 50.0%
[30] = Cycle 2, target relative humidity 60.0%
[31] = Cycle 2, target relative humidity 70.0%
[32] = Cycle 2, target relative humidity 80.0%
[33] = Cycle 2, target relative humidity 90.0%
[34] = Cycle 2, target relative humidity 95.0%

Structure (SMILES): CCc1cc2n(CC(=O)Nc3ccc(F)cn3)c(=O)c3ccc(C(F)(F)F)nc3n2n1 [Example 12, 2-(2-Ethyl-5-oxo-8-(trifluoromethyl)pyrazolo[1,5-a]pyrido[3,2-e]pyrimidin-4(5H)-yl)-N-(5-fluoropyridin-2-yl)acetamide]
- Human t1/2 ([1]; human liver microsome 0.5 mg/mL, compound 1 μM, NADPH/UDPGA): ∞
- Human Remaining (%, 60 min) ([1]; human liver microsome, 60 min): 113.9%
- Mouse Remaining (%, 60 min) [2]: 81.3%
- Rat Remaining (%, 60 min) [3]: 104.4%

Structure (SMILES): N#Cc1cc2n(CC(=O)Nc3ccc(F)cn3)c(=O)c3ccc(C(F)(F)F)nc3n2n1.O=S(=O)(O)O [Sulfate (crystal form B), 2-(2-cyano-5-oxo-8-(trifluoromethyl)pyrazolo[1,5-a]pyrido[3,2-e]pyrimidin-4(5H)-yl)-N-(5-fluoropyridin-2-yl)acetamide sulfate]
- exposure AUC and maximum plasma concentration Cmax compared with the free base ([4]; 10 mg/kg): superior
- AUC(0-t) ([4]; male, rat, po, p.o. 10 mg/kg, plasma, vehicle 0.5% HPMC, read-out: Area under curve AUC0-t): 21600 ng·h/mL
- MRT inf ([4]; male, rat, po, p.o. 10 mg/kg, plasma, vehicle 0.5% HPMC, read-out: Average residence time MRT0-∞): 4.6 h
- half-life ([4]; male, rat, po, p.o. 10 mg/kg, plasma, vehicle 0.5% HPMC, read-out: Half life t1/2 (converted)): 168 min
- Tmax ([4]; male, rat, po, p.o. 10 mg/kg, plasma, vehicle 0.5% HPMC, read-out: Peak time tmax): 2 h
- Cmax ([4]; male, rat, po, p.o. 10 mg/kg, plasma, vehicle 0.5% HPMC, read-out: Plasma concentration Cmax): 3080 ng/mL
- solid stability under high humidity ([5]; 92.5% RH, 7 and 14 days): stable
- % increase of total impurities [5, 7]: <0.1%
- % maximum increase of single impurity [5, 7]: <0.1%
- % increase of total impurities [5, 8]: <0.1%
- % maximum increase of single impurity [5, 8]: <0.1%
- % increase of total impurities [5, 9]: >0.2%
- % maximum increase of single impurity [5, 9]: <0.1%
- % increase of total impurities [5, 10]: >0.4%
- % maximum increase of single impurity [5, 10]: >0.1%
- % increase of total impurities [5, 11]: >0.2%
- % maximum increase of single impurity [5, 11]: >0.1%
- % increase of total impurities [5, 12]: >0.2%
- % maximum increase of single impurity [5, 12]: >0.1%
- % percentage of mass change, Desorption [6, 13]: −0.027%
- % percentage of mass change, Sorption [6, 13]: −0.002%
- % percentage of mass change, Desorption [6, 14]: 0.087%
- % percentage of mass change, Sorption [6, 14]: 0.099%
- % percentage of mass change, Desorption [6, 15]: 0.168%
- % percentage of mass change, Sorption [6, 15]: 0.171%
- % percentage of mass change, Desorption [6, 16]: 0.250%
- % percentage of mass change, Sorption [6, 16]: 0.236%
- % percentage of mass change, Desorption [6, 17]: 0.341%
- % percentage of mass change, Sorption [6, 17]: 0.303%
- % percentage of mass change, Desorption [6, 18]: 0.456%
- % percentage of mass change, Sorption [6, 18]: 0.376%
- % percentage of mass change, Desorption [6, 19]: 0.540%
- % percentage of mass change, Sorption [6, 19]: 0.455%
- % percentage of mass change, Desorption [6, 20]: 0.652%
- % percentage of mass change, Sorption [6, 20]: 0.552%
- % percentage of mass change, Desorption [6, 21]: 0.777%
- % percentage of mass change, Sorption [6, 21]: 0.691%
- % percentage of mass change, Desorption [6, 22]: 1.118%
- % percentage of mass change, Sorption [6, 22]: 1.010%
- % percentage of mass change, Desorption [6, 23]: 1.608%
- % percentage of mass change, Sorption [6, 23]: 1.608%
- % percentage of mass change, Desorption [6, 24]: −0.051%
- % percentage of mass change, Sorption [6, 24]: −0.027%
- % percentage of mass change, Desorption [6, 25]: 0.065%
- % percentage of mass change, Sorption [6, 25]: 0.070%
- % percentage of mass change, Desorption [6, 26]: 0.149%
- % percentage of mass change, Sorption [6, 26]: 0.147%
- % percentage of mass change, Desorption [6, 27]: 0.230%
- % percentage of mass change, Sorption [6, 27]: 0.218%
- % percentage of mass change, Desorption [6, 28]: 0.322%
- % percentage of mass change, Sorption [6, 28]: 0.287%
- % percentage of mass change, Desorption [6, 29]: 0.422%
- % percentage of mass change, Sorption [6, 29]: 0.369%
- % percentage of mass change, Desorption [6, 30]: 0.529%
- % percentage of mass change, Sorption [6, 30]: 0.450%
- % percentage of mass change, Desorption [6, 31]: 0.632%
- % percentage of mass change, Sorption [6, 31]: 0.545%
- % percentage of mass change, Desorption [6, 32]: 0.761%
- % percentage of mass change, Sorption [6, 32]: 0.682%
- % percentage of mass change, Desorption [6, 33]: 1.087%
- % percentage of mass change, Sorption [6, 33]: 1.007%
- % percentage of mass change, Desorption [6, 34]: 1.618%
- % percentage of mass change, Sorption [6, 34]: 1.618%
